Data published in patent US20240199561A1, “INHIBITORS OF DYRK AND PIM” (COLD SPRING HARBOR LABORATORY, priority 2021, published 2024).
Entries after “also recorded” stand apart in the source; their conditions may differ. One block for each compound: values may come before it.

Tests used:
[1] = target: PIM1 (Homo sapiens (Human), UniProt P11309); test: Kinase assay, PIM1 IC50; format: biochemical
[2] = target: DYRK1A point mutants (Homo sapiens, UniProt Q13627, F238L/M240R); test: In-vitro radiolabeled kinase assays against DYRK1A point mutants; format: biochemical; conditions: F238LM240R
Text: (§1) Kinase domains contain a gatekeeper residue that partially or fully blocks a hydrophobic region deep in the ATP binding pocket. The gatekeeper residue contributes to the selectivity of kinases for small molecule inhibitors. Based on the DYRK1A crystal structure with FC3 and sequence alignment, the gatekeeper residue in DYRK1A is Phe238 which is replaced by a smaller […] in case of PIM1 and other PIM kinases. Similarly, Met240, two residues after the gatekeeper residue was very unique to DYRK1A. Another interesting residue was Ser241 which was conserved among DYRKs. Point mutants of the gatekeeper residue (F238L), Met240 (M240R), […] and a double mutant (F238LM240R) were created to evaluate if the point mutants show resistance towards FC2 and FC3.
(§2) In-vitro radiolabeled kinase assays were used to determine the IC50s of FC2 and FC3 against the DYRK1A point mutants. There was no change in the Km or Vmax of the point mutants of DYRK1A and their activity was similar to wild-type DYRK1A.

[3] = target: DYRK1A point mutants (Homo sapiens, UniProt Q13627, S242A); test: as above; format: biochemical; conditions: S242A
Text: as §1, §2

[4] = target: DYRK1A point mutants (Homo sapiens, UniProt Q13627, M240R); test: as above; format: biochemical; conditions: M240R
Text: as §1, §2

[5] = target: DYRK1A point mutants (Homo sapiens, UniProt Q13627, F238L); test: as above; format: biochemical; conditions: F238L
Text: as §1, §2

[6] = tested on: LN229; test: Neurosphere proliferation assay, LN229; format: cell-based; conditions: LN229, serum free conditions with growth factors
Procedure: (§3) Neurospheres are free-floating 3-D clusters of neural stem cells that are grown in serum-free media supplemented with growth factors. These cells have the capacity to self-renew and differentiate into cell types present within the tumor of origin. They are also responsible for tumor propagation, recurrence and resistance to traditional treatments. Neurosphere assays are commonly used to uncover more relevant brain tumor biology than traditional culture conditions. Several parameters can be assayed including neurosphere number and size. Neurosphere formation remained a significant predictor of clinical outcome in GBM, independent of the Ki67 labeling index. […] Self-renewal is the ability of a single cell to form a neurosphere.
(§4) Two EGFR-dependent GBM cell-lines, U87MG and LN229 were grown under serum free conditions with growth factors to induce the formation of neurospheres. Their stemness was confirmed using a western blot to detect stem cell markers. […] This reaffirmed the fact that DYRK1A plays a crucial role in regulating neurosphere self-renewal in GBM.

[7] = tested on: U87MG cells; test: Invasion assay (Matrigel), U87MG; format: cell-based; conditions: for ability of the cells to invade the Matrigel chamber / cell invasion (cells crossing matrigel membrane): U87MG; for invasion: U87MG DYRK1A knockouts rescued with point mutant F238LM240R, compared to DYRK1A wild-type treated cells; for cell invasion (cells crossing matrigel membrane): 5 μM and 10 μM, relative to DMSO vehicle
Text: (§5) The Invasion Assay provides an in vitro system to study cell invasion of malignant and normal cells. Specific applications include assessment of the metastatic potential of tumor cells. Invasion chambers coated with Corning® Matrigel® matrix provide cells with the conditions that allow assessment of their invasive capacity in vitro. Corning Matrigel matrix serves as a reconstituted basement membrane in vitro, occluding the pores of the membrane and blocking non-invasive cells from migrating through the membrane. In contrast, invasive cells (malignant and non-malignant) secrete proteases that enzymatically degrade the Corning Matrigel matrix and enable invasion through the membrane pores.
(§6) In order to assess whether DYRK1A plays a role in cell invasion, we performed an invasion assay using the two GBM cell lines U87MG and LN229. […] Inhibition of DYRK1A using FC2 and FC3 can also decrease the metastatic potential of GBM cells, thus making them good therapeutic candidates for EGFR-dependent GBM.

[8] = target: DYRK1A (Homo sapiens (Human), UniProt Q13627); test: Radiolabelled kinase assay (IC50 determination), DYRK1A; conditions: read-out: DYRK1A IC50 (nm)
Procedure: Protein kinase assays using radiolabeled [γ-^32P] […] In this assay, the activity of a protein kinase is measured using an appropriate acceptor peptide or protein substrate. The assay method involves the use of P81 phosphocellulose paper squares to capture the phosphorylated peptides or proteins resulting from the protein kinase reaction. The activity of DYRK1A was measured by its ability to phosphorylate the peptide termed Woodtide that is derived from the substrate FKHR (Forkhead in rhabdomyosarcoma) at Ser329. Two lysine residues are added at the N-terminus of the peptide to facilitate its binding to the phosphocellulose paper ([sequence]). Assays were carried out at 30° C. for 10 mins using 25 μM Woodtide in 50 mM HEPES pH 7.5, 50 mM MgCl2, 50 mM DTT and 0.1 mM [γ-^32P] ATP (106 c.p.m./nmol). […] The readings were taken using a scintillation counter and data was analyzed using GraphPad Prism 8. One unit of enzyme activity was the amount that catalyzed the phosphorylation of 1 nmol of Woodtide in 1 min.

[9] = tested on: LN229; test: Invasion assay (Matrigel), LN229; format: cell-based
Text: as §5, §6

[10] = target: panel of 140 different kinases; test: Panel of 140 different kinases; format: biochemical
[11] = tested on: U87MG cells; test: Neurosphere proliferation assay, U87MG; format: cell-based; conditions: for proliferation of U87MG cells, assessed by neurosphere diameter: 5 μM, 10 μM, and 20 μM, compared to DMSO vehicle control; for neurosphere proliferation: U87MG DYRK1A knockouts rescued with point mutant F238LM240R, compared to DYRK1A wild-type treated cells; for neurosphere proliferation (neurosphere numbers and size): U87MG, serum free conditions with growth factors
Procedure: as §3, §4
Compounds of Formula I therefore have an anticancer potential and inhibit proliferation of cells with a cancer phenotype.

Chain of PIM1 (P11309 whole entry): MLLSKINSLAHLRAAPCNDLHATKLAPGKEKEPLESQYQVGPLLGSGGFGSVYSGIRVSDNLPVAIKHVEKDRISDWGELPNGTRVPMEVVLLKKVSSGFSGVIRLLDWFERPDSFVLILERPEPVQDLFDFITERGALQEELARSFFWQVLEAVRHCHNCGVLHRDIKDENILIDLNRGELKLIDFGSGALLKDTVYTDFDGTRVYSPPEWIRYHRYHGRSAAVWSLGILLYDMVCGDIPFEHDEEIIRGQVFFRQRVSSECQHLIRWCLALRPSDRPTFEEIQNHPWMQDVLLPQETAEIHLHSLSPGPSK

Structure (SMILES): O=C(c1ccc(O)c(O)c1)c1nc2cc(O)c(O)cc2s1 [FC-3, (5,6-Dihydroxybenzo[d]thiazol-2-yl)(3,4-dihydroxyphenyl)methanone]
- PIM1 IC50 (nm) [1]: Micromolar inhibition
- IC50 against DYRK1A double mutant versus wild-type [2]: even higher
- IC50 against DYRK1A point mutant versus wild-type [3]: significantly higher
- IC50 against DYRK1A point mutant versus wild-type [4]: significantly higher
- IC50 against DYRK1A point mutant versus wild-type [5]: significantly higher
- neurosphere proliferation (neurosphere numbers and size) [6]: significant decrease in neurosphere proliferation
- ability of the cells to invade the Matrigel chamber [7]: impaired the ability of the cells to invade
- invasion [7]: did not show a decrease
- cell invasion (cells crossing matrigel membrane) [7]: significantly inhibited cell invasion; also recorded: reduces the invasive ability
- IC50 [8]: 53 nM
- ability of the cells to invade the Matrigel chamber [9]: impaired the ability of the cells to invade
- kinase specificity [10]: very specific to the DYRK family of kinases
- proliferation of U87MG cells, assessed by neurosphere diameter [11]: significantly inhibited proliferation
- neurosphere proliferation [11]: did not show a decrease
- neurosphere proliferation (neurosphere numbers and size) [11]: significant decrease in neurosphere proliferation

Structure (SMILES): COc1ccc(O)c2nc(C(=O)c3ccc(O)c(O)c3)sc12 [FC-7A, (3,4-dihydroxyphenyl)(4-hydroxy-7-methoxybenzo[d]thiazol-2-yl)methanone]
- IC50 [8]: 560 nM

Structure (SMILES): Oc1ccc(-c2nc3cc4cn[nH]c4cc3s2)cc1O [FC-204, 4-(1H-thiazolo[4,5-f]-indazol-6-yl)benzene-1,2-diol]
- IC50 [8]: 57 nM

Structure (SMILES): COc1cc(O)c(C(=O)c2nc3cc(O)c(O)cc3s2)cc1O [FC-4, (2,5-Dihydroxy-4-methoxyphenyl)(5,6-dihydroxybenzo[d]thiazol-2-yl)methanone]
- IC50 [1]: 174 nM
- IC50 [8]: 87 nM

Structure (SMILES): S=C1Cc2ccc(-c3nc4cc5c(cc4s3)OCO5)cc2N1 [FC-208]
- IC50 [8]: 560 nM

Structure (SMILES): COc1ccc(-c2nc3cc4cn[nH]c4cc3s2)cc1OC [FC-205, 6-(3,4-dimethoxyphenyl)-1H-thiazolo[4,5-f]-indazole]
- IC50 [8]: 206 nM

Structure (SMILES): O=C(c1nc2cc(O)c(O)cc2s1)c1cc(O)c(O)cc1O [FC-63]
- IC50 [1]: 238 nM

Structure (SMILES): CCN1/C(=C/C(C)=O)Sc2ccc(O)cc21 [INDY, reference compound]
- proliferation of U87MG cells, assessed by neurosphere diameter [11]: did not inhibit proliferation

Structure (SMILES): Oc1ccc(-c2nc3ccc4nn[nH]c4c3s2)cc1O [FC-10, 4-(1H-thiazolo[5′,4′:3,4]benzo[1,2-d][1,2,3]triazol-7-yl)benzene-1,2-diol]
- IC50 [8]: 110 nM

Structure (SMILES): Oc1ccc(-c2nc3ccc4[nH]ncc4c3s2)cc1O [FC-196, 4-(6H-thiazolo[5,4-e]indazol-2-yl)benzene-1,2-diol]
- IC50 [8]: 500 nM

Now from value to compound, other results behind:

- IC50 [1]: 317 nM
- IC50 [8]: 238 nM
Structure (SMILES): COc1ccc(C(=O)c2nc3cc(O)c(O)cc3s2)cc1F [FC-8, (5,6-Dihydroxybenzo[d]thiazol-2-yl)(3-fluoro-4-methoxyphenyl)methanone]

- PIM1 IC50 (nm) [1]: No Inhibition
- IC50 [8]: 524 nM
Structure (SMILES): O=[N+]([O-])c1ccc(O)cc1-c1nc2cc3c(cc2s1)OCO3 [FC-115]

- PIM1 IC50 (nm) [1]: Micromolar inhibition
- IC50 against DYRK1A double mutant versus wild-type [2]: even higher
- IC50 against DYRK1A point mutant versus wild-type [4]: significantly higher
- IC50 against DYRK1A point mutant versus wild-type [5]: significantly higher
- IC50 [8]: 19 nM
Structure (SMILES): Oc1ccc(-c2nc3cc4c(cc3s2)OCO4)cc1O [FC-2, 4-([1,3]Dioxolo[4′,5′:4,5]benzo[1,2-d]thiazol-6-yl)benzene-1,2-diol]
- neurosphere proliferation (neurosphere numbers and size) [6]: significant decrease in neurosphere proliferation
- ability of the cells to invade the Matrigel chamber [7]: impaired the ability of the cells to invade
- invasion [7]: did not show a decrease
- cell invasion (cells crossing matrigel membrane) [7]: significantly inhibited cell invasion; also recorded: reduces the invasive ability
- ability of the cells to invade the Matrigel chamber [9]: impaired the ability of the cells to invade
- kinase specificity [10]: very specific to the DYRK family of kinases
- proliferation of U87MG cells, assessed by neurosphere diameter [11]: significantly inhibited proliferation
- neurosphere proliferation [11]: did not show a decrease
- neurosphere proliferation (neurosphere numbers and size) [11]: significant decrease in neurosphere proliferation

- IC50 [1]: 144 nM
- IC50 [8]: 95 nM
Structure (SMILES): Oc1cc2nc(-c3ccc(O)c(O)c3O)sc2cc1O [FC-5]

- IC50 [1]: 552 nM
- IC50 [8]: 180 nM
Structure (SMILES): COc1cc(O)c(C(=O)c2nc3cc(O)ccc3s2)cc1O [FC-6, (2,5-Dihydroxy-4-methoxyphenyl)(5-hydroxybenzo[d]thiazol-2-yl)methanone]

- IC50 [8]: 400 nM
Structure (SMILES): Oc1ccc(-c2nc3c(ccc4[nH]cnc43)s2)cc1O [FC-14, 4-(6H-imidazo[4′,5′:5,6]benzo[1,2-d]thiazol-2-yl)benzene-1,2-diol]

- PIM1 IC50 (nm) [1]: Micromolar inhibition
- IC50 [8]: 229 nM
Structure (SMILES): O=C(c1ccc(O)c(O)c1)c1nc2c(O)ccc(O)c2s1 [FC-7, (4,7-Dihydroxybenzo[d]thiazol-2-yl)(3,4-dihydroxyphenyl)methanone]
